Data from patent publication US20130042333A1, “MARKERS FOR CANCER PROGNOSIS AND THERAPY AND METHODS OF USE” (priority 2011, published 2013).

Experiments:
[1] = tested on: HBCx-14 breast tumor xenograft; conditions: A/C 2/100 or C 100 mg/kg, x2 cycles
Source text: Tumor xenografts were generated by direct subcutaneous grafting into immunodeficient mice of human tumor surgical samples with informed written consent of the patients and maintained by serial transplantation. […] They are thus clinically relevant tumor models, as opposed to xenografts produced from tumor cell lines that have been obtained by in vitro culture and often passaged for many years (Fiebig, H. H. et al. Eur J Cancer 40, 802-820, 2004; Marangoni E., Vincent-Salomon A., Auger N. et al. Clin Cancer Res. 2007 Jul. 1; 13:3989-98).
Chemotherapeutic drugs were administered by intraperitoneal route according to the following doses and schedules: adriamycin, 2 mg/kg, q3wk (Doxorubicin®, Teva Pharmaceuticals, France) and Cyclophosphamide, 100 mg/kg, q3wk (Endoxan®, Baxter, France). Irinotecan (Campto®, Pfizer Holding France), 50 mg/kg, q4dx4. Etoposide 12 mg/kg, qdx3. Ifosfamide 90 mg/kg, qdx3. bPARP inhibitor (AZD2281, Sequoia Research Products, UK) at 50 mg/kg (ip; qdx14). A second treatment cycle was performed with PARP inhibitor at 50 mg/kg (ip qdx5) during the nodule phase. Other pharmacological inhibitors are tested and administrated at the nodule phase: JAK1/2 Inhibitor (CP-690550) at 15 mg/kg (po qdx14), Epigallocatechin gallate (ECGC) (Sequoia Research Products, UK) at 30 mg/kg (ip qdx28), HDAC inhibitor (Trichostatine A), Retinoic acid at 50 mg/kg (ip qdx28) (Sigma-Aldrich, France). Breast tumor xenograft models were transplanted into 5-week old female Swiss nude mice, as described above, one tumor being transplanted into 5-10 recipients. When tumors reached a volume of 60-250 mm3, mice were individually identified and randomly assigned to the control or treated groups (12 to 20 mice per group). Tumor volume was evaluated by measuring two perpendicular diameters of the tumor, with a calliper, biweekly during the treatment period and once a week during the follow-up period. The formula TV (mm3)=[length (mm)×width (mm)2]/2 was used, where the length and the width were the longest and the shortest diameters of the tumor, respectively. All animals were weighted biweekly during the treatment period and the follow-up period. Mice were ethically sacrificed when the tumor volume reached 2000 mm3 Individual tumor growth delays (TGD) is calculated as the time in days required for individual tumors to reach 3- to 5-fold the initial median tumor volume. The tumor growth delay index (TGDI) is calculated as the median growth delay in the treated group divided by the median growth delay in the control group. The percentage ratio between the mean tumor volume of a treated group (T) and the mean tumor volume of the control group (C) is calculated.
(§1) Tumors were collected from 5 independent mice at different time points: prior to treatment (=controls with volume<200 mm3); post-treatment residual tumors (=nodules with volume<32 mm3 until minimal palpation); recurrent tumors (=regrowth with volume>62.5 mm3) Tumors or nodules were processed for (1) FFPE (formalin-fixed paraffin-embedded) or for (2) snap frozen samples: samples were cut into 3-4 mm pieces (at least 3 fragments) and snap-frozen in liquid nitrogen, then transferred to −80° C. for storage. Samples were allocated for histology, microdissection and RNA analyses.
Three categories of responders were defined based on the TGDI and T/C values.

[2] = tested on: Stat1 (total, phospho-Tyr701, phospho-Ser727), Ifi27, Ifi44, Lcn2, Oas1; conditions: T330 breast cancer xenograft; after chemotherapy; compared with A/C combination
Procedure: as §1

O=P1(N(CCCl)CCCl)NCCCO1 (centres unmarked) [C, Cyclophosphamide]
% Nodules [1]: 100%
% Tumor Relapse [1]: 67%
Median Nodule Apparition Time [1]: 11
Median Time of Relapse [1]: 53
T/C % D21 [1]: 2%
TGDI [1]: 6.66
median TGD × 5 [1]: 82.00 days
total and phosphorylated Stat1 protein (western blotting) [2]: same increase in Stat 1 protein amount and phosphorylation level
